Experimental data published in US7074789B2, “Kinase inhibitors” (Amgen Inc., priority 1999, dated 2006).
Where two headings read alike, the source gives them in different places.

Tests used:
Format in all cases: biochemical
IGFR-1 [1] = target: T1, IGFR-1 (Homo sapiens, UniProt P08069); assay: Kinase inhibition assay (33P transfer), IGFR-1; conditions: Table 2, kinase inhibition class
T1 construct: Kinases are expressed as either kinase domains or full length constructs; made in house

Tek = target: T2, Tek (Homo sapiens, UniProt Q02763); assay: Kinase inhibition assay (33P transfer), Tek; conditions: read-out: Tek-1
T2 construct: Kinases are expressed as either kinase domains or full length constructs; made in house
Outline: (§1)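 Read-out: scintillation counts of 33P moved from ATP onto synthetic peptide polymer coated on the well surface, after washing with 0.5% phosphoric acid. Enzymes were tagged (GST or polyHistidine) and came from bacterial or insect-cell expression. IC50 marks 50% loss of incorporated label.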

AKT = target: T3, AKT (Homo sapiens, UniProt Q9Y243); assay: Kinase inhibition assay (33P transfer), AKT; conditions: Table 2, kinase inhibition class; read-out: AKT3-1
T3 construct: Kinases are expressed as either kinase domains or full length constructs; made in house
T3 sequence (Q9Y243 whole entry, the tested form may be a part): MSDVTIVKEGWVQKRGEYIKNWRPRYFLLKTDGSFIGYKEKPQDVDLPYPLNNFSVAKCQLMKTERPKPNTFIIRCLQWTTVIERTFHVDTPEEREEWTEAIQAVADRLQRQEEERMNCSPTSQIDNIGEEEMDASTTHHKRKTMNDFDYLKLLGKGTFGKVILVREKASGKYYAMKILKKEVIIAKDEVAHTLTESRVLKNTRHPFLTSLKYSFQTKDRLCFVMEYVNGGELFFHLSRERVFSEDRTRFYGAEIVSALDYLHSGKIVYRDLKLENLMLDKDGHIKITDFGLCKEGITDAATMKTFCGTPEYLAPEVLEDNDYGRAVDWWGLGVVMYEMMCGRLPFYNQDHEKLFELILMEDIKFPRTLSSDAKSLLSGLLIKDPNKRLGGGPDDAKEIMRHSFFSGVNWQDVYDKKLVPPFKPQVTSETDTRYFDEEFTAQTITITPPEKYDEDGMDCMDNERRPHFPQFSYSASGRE
Outline: (§2)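 Enzyme activity is taken as the amount of 33PO4 moved from ATP onto poly(Glu, Tyr) 4:1 or poly(Arg, Ser) 3:1 fixed to the plate surface. Unbound label is removed with 0.5% phosphoric acid before scintillation counting.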

Lck = target: T4, Lck (Homo sapiens, UniProt P06239); assay: Kinase inhibition assay (33P transfer), Lck; conditions: read-out: Lck-1
T4 construct: Kinases are expressed as either kinase domains or full length constructs; made in house
T4 sequence (P06239 whole entry, species assumed, the tested form may be a part): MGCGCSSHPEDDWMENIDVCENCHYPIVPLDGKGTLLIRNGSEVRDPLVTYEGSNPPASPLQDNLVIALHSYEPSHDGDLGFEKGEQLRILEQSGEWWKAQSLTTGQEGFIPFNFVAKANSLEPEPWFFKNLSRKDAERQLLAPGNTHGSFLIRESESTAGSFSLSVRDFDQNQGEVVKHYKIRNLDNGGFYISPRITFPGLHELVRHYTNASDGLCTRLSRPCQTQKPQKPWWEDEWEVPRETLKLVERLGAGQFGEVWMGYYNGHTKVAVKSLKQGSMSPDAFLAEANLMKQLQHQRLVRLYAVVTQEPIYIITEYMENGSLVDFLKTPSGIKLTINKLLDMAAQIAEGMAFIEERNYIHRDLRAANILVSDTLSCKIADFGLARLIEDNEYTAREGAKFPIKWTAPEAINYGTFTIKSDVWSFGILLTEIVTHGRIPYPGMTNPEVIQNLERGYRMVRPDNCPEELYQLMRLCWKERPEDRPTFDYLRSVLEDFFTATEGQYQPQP
Outline: as §2

c-Met = target: T5, c-Met (Homo sapiens, UniProt P08581); assay: Kinase inhibition assay (33P transfer), c-Met; conditions: Table 2, kinase inhibition class; read-out: Met-1
T5 construct: Kinases are expressed as either kinase domains or full length constructs; made in house
T5 sequence (P08581 25-1390): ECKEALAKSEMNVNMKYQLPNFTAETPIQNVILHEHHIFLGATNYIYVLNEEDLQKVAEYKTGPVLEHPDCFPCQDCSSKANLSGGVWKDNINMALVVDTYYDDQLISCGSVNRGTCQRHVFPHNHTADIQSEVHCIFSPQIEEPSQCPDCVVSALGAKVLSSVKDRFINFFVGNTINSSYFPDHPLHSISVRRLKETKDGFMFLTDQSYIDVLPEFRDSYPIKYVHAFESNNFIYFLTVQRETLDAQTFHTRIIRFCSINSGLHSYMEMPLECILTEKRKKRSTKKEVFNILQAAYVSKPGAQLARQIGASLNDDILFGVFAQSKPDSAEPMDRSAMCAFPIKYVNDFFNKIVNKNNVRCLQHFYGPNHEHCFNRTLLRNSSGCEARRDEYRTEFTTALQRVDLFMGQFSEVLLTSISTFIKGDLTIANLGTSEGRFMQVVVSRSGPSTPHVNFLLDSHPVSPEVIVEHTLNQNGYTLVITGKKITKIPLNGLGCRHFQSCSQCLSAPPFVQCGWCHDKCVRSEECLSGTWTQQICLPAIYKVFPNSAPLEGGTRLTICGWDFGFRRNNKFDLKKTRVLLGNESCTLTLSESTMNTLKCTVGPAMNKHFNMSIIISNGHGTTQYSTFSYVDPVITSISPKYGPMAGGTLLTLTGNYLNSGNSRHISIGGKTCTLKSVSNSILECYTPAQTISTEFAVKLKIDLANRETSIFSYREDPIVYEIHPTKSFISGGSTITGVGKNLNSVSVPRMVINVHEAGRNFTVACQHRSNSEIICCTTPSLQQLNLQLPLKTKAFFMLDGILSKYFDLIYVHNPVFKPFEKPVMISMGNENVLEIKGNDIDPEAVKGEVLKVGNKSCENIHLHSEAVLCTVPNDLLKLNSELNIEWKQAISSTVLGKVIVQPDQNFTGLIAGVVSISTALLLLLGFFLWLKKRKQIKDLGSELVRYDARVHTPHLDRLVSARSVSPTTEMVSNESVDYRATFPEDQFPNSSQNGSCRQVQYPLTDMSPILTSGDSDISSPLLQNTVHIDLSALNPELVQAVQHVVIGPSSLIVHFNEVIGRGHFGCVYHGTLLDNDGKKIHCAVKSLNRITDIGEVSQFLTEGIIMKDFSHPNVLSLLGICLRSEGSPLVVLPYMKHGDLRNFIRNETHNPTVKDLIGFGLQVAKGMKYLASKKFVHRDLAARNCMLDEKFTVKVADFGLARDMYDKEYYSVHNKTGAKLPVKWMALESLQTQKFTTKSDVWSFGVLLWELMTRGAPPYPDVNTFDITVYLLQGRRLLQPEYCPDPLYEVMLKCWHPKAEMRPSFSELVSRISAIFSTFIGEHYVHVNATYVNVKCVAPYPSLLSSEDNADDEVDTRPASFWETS
Outline: as §1

FGFR1 = target: T6, FGFR1 (Homo sapiens, UniProt P11362); assay: Kinase inhibition assay (33P transfer), FGFR1; conditions: read-out: FGFR1-1
T6 construct: Kinases are expressed as either kinase domains or full length constructs; made in house

Flt-1 = target: T7, Flt-1 (Homo sapiens, UniProt P17948); assay: Kinase inhibition assay (33P transfer), Flt-1
T7 construct: Kinases are expressed as either kinase domains or full length constructs; made in house
Outline: as §1

EGFR = target: T8, EGFR (Homo sapiens, UniProt P00533); assay: Kinase inhibition assay (33P transfer), EGFR; conditions: Table 2, kinase inhibition class; read-out: EGFR-1
T8 construct: Kinases are expressed as either kinase domains or full length constructs; made in house
T8 sequence (P00533 25-1210, species assumed): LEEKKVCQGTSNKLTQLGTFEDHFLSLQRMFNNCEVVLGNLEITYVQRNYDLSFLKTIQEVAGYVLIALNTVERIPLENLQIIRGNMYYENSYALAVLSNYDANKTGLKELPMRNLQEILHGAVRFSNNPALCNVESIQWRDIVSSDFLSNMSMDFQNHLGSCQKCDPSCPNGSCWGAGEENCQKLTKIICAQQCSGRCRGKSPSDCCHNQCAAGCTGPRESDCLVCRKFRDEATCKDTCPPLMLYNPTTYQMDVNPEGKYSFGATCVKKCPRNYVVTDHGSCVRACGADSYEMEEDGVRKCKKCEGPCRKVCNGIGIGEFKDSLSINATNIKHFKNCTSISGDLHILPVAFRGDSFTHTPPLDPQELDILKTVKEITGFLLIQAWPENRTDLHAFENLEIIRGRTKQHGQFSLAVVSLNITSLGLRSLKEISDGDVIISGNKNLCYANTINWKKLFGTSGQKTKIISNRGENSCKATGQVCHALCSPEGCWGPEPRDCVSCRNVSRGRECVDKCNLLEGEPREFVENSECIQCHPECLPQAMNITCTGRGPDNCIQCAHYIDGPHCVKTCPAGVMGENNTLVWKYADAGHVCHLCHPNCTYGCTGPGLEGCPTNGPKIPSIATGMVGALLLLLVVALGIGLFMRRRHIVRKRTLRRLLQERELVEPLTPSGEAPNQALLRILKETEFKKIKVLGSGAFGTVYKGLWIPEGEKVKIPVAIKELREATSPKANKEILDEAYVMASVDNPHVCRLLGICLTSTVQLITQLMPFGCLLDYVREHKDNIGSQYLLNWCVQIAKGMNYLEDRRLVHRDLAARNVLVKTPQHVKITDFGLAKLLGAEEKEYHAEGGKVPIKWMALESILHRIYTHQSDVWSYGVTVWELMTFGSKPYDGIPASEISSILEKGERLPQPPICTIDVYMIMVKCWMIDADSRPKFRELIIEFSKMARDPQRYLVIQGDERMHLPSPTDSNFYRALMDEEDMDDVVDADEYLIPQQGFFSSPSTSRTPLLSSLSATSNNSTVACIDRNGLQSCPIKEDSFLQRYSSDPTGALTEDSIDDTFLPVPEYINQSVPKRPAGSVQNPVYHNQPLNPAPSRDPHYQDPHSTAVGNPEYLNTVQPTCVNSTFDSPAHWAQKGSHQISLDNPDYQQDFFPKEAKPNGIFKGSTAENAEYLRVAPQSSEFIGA
Outline: as §1

PDGFRB [2] = target: T9, PDGFRB (Homo sapiens, UniProt P09619); assay: Kinase inhibition assay (33P transfer), PDGFRB; conditions: read-out: PDGFRB-1
T9 construct: Kinases are expressed as either kinase domains or full length constructs; made in house

Kdr = target: T10, Kdr (Homo sapiens, UniProt P35968); assay: Kinase inhibition assay (33P transfer), Kdr; conditions: read-out: KDR-1
T10 construct: Kinases are expressed as either kinase domains or full length constructs; made in house
T10 sequence (P35968 20-1356, species assumed): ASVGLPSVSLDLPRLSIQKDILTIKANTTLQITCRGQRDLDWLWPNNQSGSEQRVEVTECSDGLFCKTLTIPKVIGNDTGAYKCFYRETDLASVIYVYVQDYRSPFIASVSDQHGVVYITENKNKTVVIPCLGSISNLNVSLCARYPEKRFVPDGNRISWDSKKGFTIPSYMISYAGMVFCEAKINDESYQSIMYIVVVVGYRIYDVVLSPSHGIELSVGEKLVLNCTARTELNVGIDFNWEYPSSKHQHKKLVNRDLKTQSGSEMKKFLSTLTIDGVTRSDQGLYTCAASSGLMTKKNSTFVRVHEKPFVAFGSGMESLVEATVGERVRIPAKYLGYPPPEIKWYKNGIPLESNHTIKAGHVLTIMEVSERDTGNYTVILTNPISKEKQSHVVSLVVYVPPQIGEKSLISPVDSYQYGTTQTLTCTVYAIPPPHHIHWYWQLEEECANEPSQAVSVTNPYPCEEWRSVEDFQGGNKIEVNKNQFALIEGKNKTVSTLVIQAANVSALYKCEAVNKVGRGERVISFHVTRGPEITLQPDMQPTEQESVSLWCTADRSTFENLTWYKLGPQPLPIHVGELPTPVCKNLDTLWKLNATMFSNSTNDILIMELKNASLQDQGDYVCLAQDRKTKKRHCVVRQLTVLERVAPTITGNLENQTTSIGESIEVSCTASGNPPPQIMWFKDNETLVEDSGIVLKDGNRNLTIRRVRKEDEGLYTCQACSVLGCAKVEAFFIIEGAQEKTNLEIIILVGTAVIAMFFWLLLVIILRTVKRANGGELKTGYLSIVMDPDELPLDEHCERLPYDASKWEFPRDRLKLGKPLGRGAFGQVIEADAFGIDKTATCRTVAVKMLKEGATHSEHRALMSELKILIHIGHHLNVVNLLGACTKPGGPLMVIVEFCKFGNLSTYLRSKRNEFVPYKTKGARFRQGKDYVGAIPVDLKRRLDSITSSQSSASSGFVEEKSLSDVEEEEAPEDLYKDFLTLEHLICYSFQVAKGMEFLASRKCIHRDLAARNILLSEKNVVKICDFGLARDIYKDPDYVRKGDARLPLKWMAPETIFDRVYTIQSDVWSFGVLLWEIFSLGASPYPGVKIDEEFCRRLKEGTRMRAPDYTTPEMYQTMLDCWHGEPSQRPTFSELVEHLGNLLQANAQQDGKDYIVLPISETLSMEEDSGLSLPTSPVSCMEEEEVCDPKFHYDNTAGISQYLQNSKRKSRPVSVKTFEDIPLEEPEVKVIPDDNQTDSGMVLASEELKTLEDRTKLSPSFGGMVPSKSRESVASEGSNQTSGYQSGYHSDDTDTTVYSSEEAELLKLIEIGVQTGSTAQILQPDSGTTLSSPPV
Outline: as §2

Hck-1 = target: T11, Hck-1 (Homo sapiens, UniProt P08631); assay: Kinase inhibition assay (33P transfer), Hck; conditions: Table 6, Hck-1 kinase inhibition class
T11 construct: Kinases are expressed as either kinase domains or full length constructs; made in house

Lyn = target: T12, Lyn (Homo sapiens, UniProt P07948); assay: Kinase inhibition assay (33P transfer), Lyn; conditions: Table 6, Lyn-1 kinase inhibition class
T12 construct: Kinases are expressed as either kinase domains or full length constructs; made in house
Outline: as §1

ErbB2 = target: T13, ErbB2 (Homo sapiens, UniProt P04626); assay: Kinase inhibition assay (33P transfer), ErbB2; conditions: read-out: ErbB2-2
T13 construct: Kinases are expressed as either kinase domains or full length constructs; made in house
Outline: as §1

Fyn = target: T14, Fyn (Homo sapiens, UniProt P06241); assay: Kinase inhibition assay (33P transfer), Fyn; conditions: read-out: Fyn-1
T14 construct: Kinases are expressed as either kinase domains or full length constructs; made in house
Outline: as §1

Itk = target: T15, Itk (Homo sapiens, UniProt Q08881); assay: Kinase inhibition assay (33P transfer), Itk; conditions: read-out: Itk-1
T15 construct: Kinases are expressed as either kinase domains or full length constructs; made in house
T15 sequence (Q08881 1-620): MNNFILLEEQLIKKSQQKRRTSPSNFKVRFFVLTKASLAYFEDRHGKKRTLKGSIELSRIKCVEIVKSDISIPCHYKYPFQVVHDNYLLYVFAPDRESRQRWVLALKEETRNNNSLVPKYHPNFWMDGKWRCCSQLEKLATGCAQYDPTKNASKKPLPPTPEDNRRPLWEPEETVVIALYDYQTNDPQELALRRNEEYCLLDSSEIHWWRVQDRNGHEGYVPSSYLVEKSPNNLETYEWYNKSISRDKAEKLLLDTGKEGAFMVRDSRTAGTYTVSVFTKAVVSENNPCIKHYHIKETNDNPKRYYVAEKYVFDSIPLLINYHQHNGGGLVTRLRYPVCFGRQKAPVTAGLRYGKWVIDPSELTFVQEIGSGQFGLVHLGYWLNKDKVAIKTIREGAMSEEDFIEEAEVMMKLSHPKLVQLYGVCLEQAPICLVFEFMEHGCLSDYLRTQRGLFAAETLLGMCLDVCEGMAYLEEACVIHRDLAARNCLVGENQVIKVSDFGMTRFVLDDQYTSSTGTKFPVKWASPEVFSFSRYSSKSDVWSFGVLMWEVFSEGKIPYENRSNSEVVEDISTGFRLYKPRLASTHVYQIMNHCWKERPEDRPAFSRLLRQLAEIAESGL
Outline: as §1

PDGFRB [3] = target: T9, PDGFRB; assay: Kinase inhibition assay (33P transfer), PDGFRB; conditions: read-out: PDGFRB-1; remark: listed apart in the source
Zap-70 = target: T16, Zap-70 (Homo sapiens, UniProt P43403); assay: Kinase inhibition assay (33P transfer), Zap-70; conditions: read-out: Zap-1
T16 construct: Kinases are expressed as either kinase domains or full length constructs; made in house
T16 sequence (P43403 1-619): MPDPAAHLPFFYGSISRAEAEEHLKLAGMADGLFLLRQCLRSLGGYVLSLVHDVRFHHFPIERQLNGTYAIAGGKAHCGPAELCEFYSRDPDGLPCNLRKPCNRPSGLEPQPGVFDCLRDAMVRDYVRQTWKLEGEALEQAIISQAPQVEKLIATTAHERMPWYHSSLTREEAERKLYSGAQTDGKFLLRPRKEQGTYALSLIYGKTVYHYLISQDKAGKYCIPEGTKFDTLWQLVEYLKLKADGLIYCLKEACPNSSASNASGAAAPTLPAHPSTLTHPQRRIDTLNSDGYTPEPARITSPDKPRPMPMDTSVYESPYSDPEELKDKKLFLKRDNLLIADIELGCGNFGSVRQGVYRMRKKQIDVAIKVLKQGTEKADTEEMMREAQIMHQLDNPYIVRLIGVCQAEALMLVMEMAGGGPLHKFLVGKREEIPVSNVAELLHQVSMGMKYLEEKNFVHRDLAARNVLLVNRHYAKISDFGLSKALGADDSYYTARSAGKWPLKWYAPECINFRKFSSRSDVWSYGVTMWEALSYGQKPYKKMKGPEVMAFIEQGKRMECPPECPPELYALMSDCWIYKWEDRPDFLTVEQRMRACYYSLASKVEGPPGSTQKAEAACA
Outline: as §2

Src = target: T17, Src (Homo sapiens, UniProt P12931); assay: Kinase inhibition assay (33P transfer), Src; conditions: Table 6, Src-1 kinase inhibition class
T17 construct: Kinases are expressed as either kinase domains or full length constructs; made in house
Outline: as §1

IGFR-1 [4] = target: T1, IGFR-1; assay: Kinase inhibition assay, IGFR-1 (Table 2); conditions: Table 2, kinase inhibition class
ErbB4 = target: T18, ErbB4 (Homo sapiens, UniProt Q15303); assay: Kinase inhibition assay (33P transfer), ErbB4; conditions: read-out: ErbB4-1
T18 construct: Kinases are expressed as either kinase domains or full length constructs; made in house

EPHB4 = target: T19, EPHB4 (Homo sapiens, UniProt P54760); assay: Kinase inhibition assay (33P transfer), EPHB4; conditions: read-out: EPHB4-1
T19 construct: Kinases are expressed as either kinase domains or full length constructs; made in house
T19 sequence (P54760 16-987): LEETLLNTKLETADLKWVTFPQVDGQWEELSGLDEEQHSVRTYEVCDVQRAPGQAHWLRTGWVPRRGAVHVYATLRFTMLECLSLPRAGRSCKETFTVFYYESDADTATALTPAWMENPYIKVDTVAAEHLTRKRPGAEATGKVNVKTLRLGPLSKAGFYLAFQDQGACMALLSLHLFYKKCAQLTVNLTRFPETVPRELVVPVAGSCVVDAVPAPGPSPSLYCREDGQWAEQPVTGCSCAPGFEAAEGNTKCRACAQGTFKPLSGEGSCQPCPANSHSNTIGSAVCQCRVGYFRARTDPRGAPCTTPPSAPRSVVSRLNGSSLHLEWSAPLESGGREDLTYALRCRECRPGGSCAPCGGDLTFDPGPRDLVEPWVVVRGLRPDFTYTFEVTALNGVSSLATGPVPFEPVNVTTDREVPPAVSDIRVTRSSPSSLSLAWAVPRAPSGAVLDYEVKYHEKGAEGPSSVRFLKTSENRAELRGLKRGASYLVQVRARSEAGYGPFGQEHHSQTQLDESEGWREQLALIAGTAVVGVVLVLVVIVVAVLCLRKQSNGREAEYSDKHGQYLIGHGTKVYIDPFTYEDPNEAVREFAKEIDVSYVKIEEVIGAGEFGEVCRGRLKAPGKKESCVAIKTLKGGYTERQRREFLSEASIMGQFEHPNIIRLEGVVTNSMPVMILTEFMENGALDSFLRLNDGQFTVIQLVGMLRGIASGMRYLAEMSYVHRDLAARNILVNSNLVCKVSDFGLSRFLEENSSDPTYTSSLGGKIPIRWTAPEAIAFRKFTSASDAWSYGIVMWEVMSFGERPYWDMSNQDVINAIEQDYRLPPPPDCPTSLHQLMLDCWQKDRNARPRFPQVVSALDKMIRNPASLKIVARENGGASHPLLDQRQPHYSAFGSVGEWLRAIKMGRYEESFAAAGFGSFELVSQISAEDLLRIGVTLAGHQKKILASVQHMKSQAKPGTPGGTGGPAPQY

Work on `COc1cc(Nc2ncnc(-n3c(NCc4ccccn4)nc4ccccc43)n2)cc(OC)c1OC` [Compound 414] yielded an IC50 (IGFR-1 [1]) greater than 9.29 µM, an IC50 (Tek) greater than 9.29 µM and an IC50 (AKT) greater than 9.29 µM. It also gave an IC50 (Lck; Table 3) greater than 9.29 µM, an IC50 (Lck) of 0.826 to 4.95 µM and an IC50 (c-Met) greater than 9.29 µM. It also gave an IC50 (FGFR1) of less than 0.826 µM, an IC50 (Flt-1) of less than 0.826 µM and an IC50 (EGFR) greater than 9.29 µM. The IC50 (PDGFRB [2]) was less than 0.826 µM, the IC50 (Kdr; Table 3) was less than 0.826 µM and the IC50 (Kdr) was less than 0.826 µM. For the same compound, the IC50 (Hck-1) was greater than 9.29 µM, the IC50 (Lyn) was greater than 9.29 µM and the IC50 (ErbB2) was greater than 9.29 µM. The IC50 (Fyn) was 0.826 to 4.95 µM, the IC50 (Itk; Table 3) was greater than 9.29 µM and the IC50 (Itk) was greater than 9.29 µM. The IC50 (PDGFRB [3]) was less than 0.826 µM, the IC50 (Zap-70; Table 3) was greater than 9.29 µM and the IC50 (Zap-70) was greater than 9.29 µM. It also gave an IC50 (Src) greater than 9.29 µM, an IC50 (IGFR-1 [4]) of 7.22 to 9.29 µM and an IC50 (ErbB4) greater than 9.29 µM.
`COc1cc(C)c(Nc2ncnc(Nc3cc(-c4ccco4)n[nH]3)n2)cc1OC` [Compound 338] was tested, and the IC50 (IGFR-1 [1]) was less than 1.02 µM, the IC50 (AKT) was greater than 11.4 µM and the IC50 (Lck; Table 3) was 1.02 to 6.1 µM. For the same compound, the IC50 (c-Met) was 1.02 to 6.1 µM, the IC50 (EGFR) was 1.02 to 6.1 µM and the IC50 (Kdr; Table 3) was 1.02 to 6.1 µM. The IC50 (Itk; Table 3) was greater than 11.4 µM, the IC50 (Zap-70; Table 3) was greater than 11.4 µM and the IC50 (EPHB4) was 6.1 to 8.9 µM.
In the case of `COc1cc(Nc2ncnc(-n3c(Nc4ccc(C#N)cc4)nc4ccccc43)n2)cc(OC)c1OC` [Compound 381], the IC50 (IGFR-1 [1]) is reported as greater than 9.1 µM, the IC50 (AKT) is reported as greater than 9.1 µM and the IC50 (Lck; Table 3) is reported as 7.08 to 9.1 µM. For the same compound, the IC50 (c-Met) was 7.08 to 9.1 µM, the IC50 (EGFR) was greater than 9.1 µM and the IC50 (Kdr; Table 3) was 4.85 to 7.08 µM. For the same compound, the IC50 (Itk; Table 3) was greater than 9.1 µM, the IC50 (Zap-70; Table 3) was greater than 9.1 µM and the IC50 (EPHB4) was 0.809 to 4.85 µM.
`COc1cc(Nc2ncnc(Nc3cccc(OCc4ccccc4)c3)n2)cc(OC)c1OC` [Compound 73] showed an IC50 (IGFR-1 [1]) greater than 9.79 µM, an IC50 (AKT) greater than 9.79 µM and an IC50 (Lck; Table 3) greater than 9.79 µM. For the same compound, the IC50 (c-Met) was greater than 9.79 µM, the IC50 (EGFR) was greater than 9.79 µM and the IC50 (Kdr; Table 3) was greater than 9.79 µM. The IC50 (Itk; Table 3) was greater than 9.79 µM, the IC50 (Zap-70; Table 3) was greater than 9.79 µM and the IC50 (EPHB4) was greater than 9.79 µM.
